Measurements as given in patent publication US11641858B2, “Agricultural chemicals” (Redag Crop Protection Ltd, priority 2016, dated 2023).

Tests used:
Pythium ultimum = experiment: Amended agar assay (potato dextrose agar), reduction in colony growth; assay type: cell-based; details: Globisporangium ultimum; descending test concentrations, 5-fold dilutions typically down to 0.032 ppm; read-out: Pythium ultimum (EC50)
Procedure: (§1) Testing was carried out on potato dextrose agar (PDA) amended with each compound at test concentrations of 20, 4 and 0.8, 0.16 and 0.032 ppm. Amended agar at each test concentration was poured into three replicate 9 cm petri dishes. Each replicate dish was inoculated in the centre with a 5 mm agar plug taken from the leading edge of a culture aged between 2 and 7 days old; the age of the culture was dependant on the growth rate of the pathogen being tested. The test pathogens were Pythium ultimum and Phytophthora cinnamomi. Plates were incubated at 18° C. and the diameter of each colony measured before growth on the fastest growing plate reached the plate edge. This varied between 2 and 7 days depending on the growth rate of test pathogens. The % reduction in colony growth compared to the control was calculated for each test concentration and pathogen combination.
(§2) The results are shown in Table 1 in which * represents an average control of up to 50% at said dosage; ** represents an average control of 50% or greater but less than 80% at said dosage; and *** represents an average control of 80% or greater at said dosage.
(§3) A primary screen was also conducted for a number of other compounds of the invention. The screen was conducted at 20 ppm and the results are provided in Table 2, in which D represents no control detected at this concentration; C represents up to 50% control; B from 50 to 99% control; and A represents a control of greater than 99%.
(§4) Alternatively, or in addition, the same assay was conducted at descending test concentrations with 5-fold dilutions typically down to 0.032 ppm, and an EC50 (the concentration at which 50% control would be achieved) was determined. The results are provided in Table 1 in which G represents an EC50 above 20 ppm, F represents an EC50 of 2-20 ppm and E represents and EC50 less than 2 ppm.

Phytophthora cinnamomi = experiment: as above; assay type: cell-based; details: descending test concentrations, 5-fold dilutions typically down to 0.032 ppm, read-out: Phytophthora cinnamomi (EC50)
Procedure: as §1, §2, §3, §4

Row | SMILES | EC50 (Pythium ultimum) | EC50 (Phytophthora cinnamomi)
1 | Cn1nnnc1-n1c(OCc2cccc(NC(=O)COc3ccccc3)n2)nc2ccccc21 [Example 25] | < 2 µg/mL | < 2 µg/mL
2 | Cn1nnnc1-n1c(OCc2cccc(NC(=O)CCC3CCCC3)n2)nc2ccccc21 [Example 26] | < 2 µg/mL | < 2 µg/mL
3 | Cn1nnnc1-n1c(OCc2cccc(NC(=O)c3ccccc3)n2)nc2ccccc21 [Example 27] | < 2 µg/mL | < 2 µg/mL
4 | Cn1nnnc1-n1c(OCc2cccc(NC(=O)Cc3ccccc3)n2)nc2ccccc21 [Example 29] | < 2 µg/mL | < 2 µg/mL
5 | CCCC(=O)Nc1cccc(COc2nc3ccccc3n2-c2nnnn2C)n1 [Example 30] | < 2 µg/mL | < 2 µg/mL
6 | CCCCC(=O)Nc1cccc(COc2nc3ccccc3n2-c2nnnn2C)n1 [Example 31] | < 2 µg/mL | < 2 µg/mL
7 | Cn1nnnc1-n1c(OCc2cccc(NC(=O)C3CC3)n2)nc2ccccc21 [Example 32] | < 2 µg/mL | < 2 µg/mL
8 | COc1ccc(C(=O)Nc2cccc(COc3nc4ccccc4n3-c3nnnn3C)n2)cc1 [Example 34] | < 2 µg/mL | < 2 µg/mL
9 | CCC(CC)C(=O)Nc1cccc(COc2nc3ccccc3n2-c2nnnn2C)n1 [Example 36] | < 2 µg/mL | < 2 µg/mL
10 | Cn1nnnc1-n1c(OCc2cccc(NC(=O)c3ccccn3)n2)nc2ccccc21 [Example 37, N-(6-(((1-(1-methyl-1H-tetrazol-5-yl)-1H-benzo[d]imidazol-2-yl)oxy)methyl)pyridin-2-yl)picolinamide] | < 2 µg/mL | < 2 µg/mL
11 | CSCC(=O)Nc1cccc(COc2nc3ccccc3n2-c2nnnn2C)n1 [Example 39, N-(6-(((1-(1-methyl-1H-tetrazol-5-yl)-1H-benzo[d]imidazol-2-yl)oxy)methyl)pyridin-2-yl)-2-(methylthio)acetamide] | < 2 µg/mL | < 2 µg/mL
12 | Cn1nnnc1-n1c(OCc2cccc(NC(=O)CC3CC3)n2)nc2ccccc21 [Example 40] | < 2 µg/mL | < 2 µg/mL
13 | COCCC(=O)Nc1cccc(COc2nc3ccccc3n2-c2nnnn2C)n1 [Example 42] | < 2 µg/mL | < 2 µg/mL
14 | Cn1nnnc1-n1c(OCc2cccc(NC(=O)c3ccc(C#N)cc3)n2)nc2ccccc21 [Example 43] | < 2 µg/mL | < 2 µg/mL

Other lines, results leading:

Row | EC50 (Pythium ultimum) | EC50 (Phytophthora cinnamomi) | SMILES
15 | < 2 µg/mL | < 2 µg/mL | Cn1nnnc1-n1c(OCc2cccc(NC(=O)COCc3ccccc3)n2)nc2ccccc21 [Example 24]
16 | < 2 µg/mL | < 2 µg/mL | CCC(=O)Nc1cccc(COc2nc3ccccc3n2-c2nnnn2C)n1 [Example 28]
17 | 2 to 20 µg/mL | 2 to 20 µg/mL | COCC(=O)Nc1cccc(COc2nc3ccccc3n2-c2nnnn2C)n1 [Example 33]
18 | < 2 µg/mL | < 2 µg/mL | Cn1nnnc1-n1c(OCc2cccc(NC(=O)C3CCCCC3)n2)nc2ccccc21 [Example 35]
19 | < 2 µg/mL | < 2 µg/mL | Cn1nnnc1-n1c(OCc2cccc(NC(=O)Cc3ccccn3)n2)nc2ccccc21 [Example 38]
20 | < 2 µg/mL | < 2 µg/mL | CSCCC(=O)Nc1cccc(COc2nc3ccccc3n2-c2nnnn2C)n1 [Example 41]
21 | < 2 µg/mL | < 2 µg/mL | Cn1nnnc1-n1c(OCc2cccc(NC(=O)CC(C)(C)C)n2)nc2ccccc21 [Example 44]
